These results are taken from ChEMBL document CHEMBL3400024, “α-Adrenoceptor antagonistic and hypotensive properties of novel arylpiperazine derivatives of pyrrolidin-2-one” (Bioorg Med Chem, 2015).

Activity calls are given as the source filed them. The calls are words filed in the database; no cut-off is given here.

Assay [1] addresses T1, Adrenergic receptor alpha-1 (Homo sapiens, UniProt P35348+P25100+P35368).
T1 sequence (P35348 whole entry): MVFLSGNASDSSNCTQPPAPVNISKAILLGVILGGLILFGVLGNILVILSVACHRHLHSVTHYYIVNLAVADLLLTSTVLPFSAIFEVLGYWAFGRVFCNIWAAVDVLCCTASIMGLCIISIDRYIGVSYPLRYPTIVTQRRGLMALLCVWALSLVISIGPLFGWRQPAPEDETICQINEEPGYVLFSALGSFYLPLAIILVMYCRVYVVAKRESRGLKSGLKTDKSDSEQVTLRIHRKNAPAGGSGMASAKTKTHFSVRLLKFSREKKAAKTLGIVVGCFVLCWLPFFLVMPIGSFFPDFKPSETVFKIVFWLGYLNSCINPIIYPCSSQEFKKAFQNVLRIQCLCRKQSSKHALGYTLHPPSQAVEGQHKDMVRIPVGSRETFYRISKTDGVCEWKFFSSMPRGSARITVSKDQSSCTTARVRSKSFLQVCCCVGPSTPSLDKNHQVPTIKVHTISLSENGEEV
T1 sequence (P25100 whole entry): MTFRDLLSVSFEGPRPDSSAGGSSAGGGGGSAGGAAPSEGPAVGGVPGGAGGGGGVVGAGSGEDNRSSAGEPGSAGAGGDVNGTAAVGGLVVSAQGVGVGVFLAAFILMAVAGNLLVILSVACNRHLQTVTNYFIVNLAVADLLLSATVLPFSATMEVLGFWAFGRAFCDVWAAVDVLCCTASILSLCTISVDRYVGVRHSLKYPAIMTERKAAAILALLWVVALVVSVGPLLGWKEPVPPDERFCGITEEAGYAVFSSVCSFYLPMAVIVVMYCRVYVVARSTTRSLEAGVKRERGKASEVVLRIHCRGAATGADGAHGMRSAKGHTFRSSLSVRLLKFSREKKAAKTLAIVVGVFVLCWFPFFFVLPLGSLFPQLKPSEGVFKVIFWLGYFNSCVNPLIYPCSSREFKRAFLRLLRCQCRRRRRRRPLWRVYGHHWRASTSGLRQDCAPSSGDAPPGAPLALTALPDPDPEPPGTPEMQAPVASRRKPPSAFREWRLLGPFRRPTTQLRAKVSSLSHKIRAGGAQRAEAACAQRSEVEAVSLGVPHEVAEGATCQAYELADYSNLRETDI
T1 sequence (P35368 whole entry): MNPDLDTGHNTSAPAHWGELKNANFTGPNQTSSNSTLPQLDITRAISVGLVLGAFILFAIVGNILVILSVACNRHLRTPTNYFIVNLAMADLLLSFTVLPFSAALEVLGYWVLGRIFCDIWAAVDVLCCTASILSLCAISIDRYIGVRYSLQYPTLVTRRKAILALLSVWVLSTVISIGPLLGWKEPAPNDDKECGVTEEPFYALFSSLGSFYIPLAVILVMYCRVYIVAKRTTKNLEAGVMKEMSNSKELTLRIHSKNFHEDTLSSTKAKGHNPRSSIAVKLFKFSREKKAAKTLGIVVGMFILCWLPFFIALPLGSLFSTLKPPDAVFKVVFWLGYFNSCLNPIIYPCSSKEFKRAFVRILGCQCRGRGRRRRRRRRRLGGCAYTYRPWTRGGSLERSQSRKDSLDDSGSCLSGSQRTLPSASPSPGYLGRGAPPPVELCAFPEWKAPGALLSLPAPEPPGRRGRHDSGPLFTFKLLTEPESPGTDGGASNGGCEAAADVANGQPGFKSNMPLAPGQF
Nature of the assay: Binding affinity to alpha-1 adrenergic receptor (unknown origin).

Assay [2] concerns the target T2, Adrenergic receptor alpha-1 (Rattus norvegicus, UniProt P15823+P23944+P43140).
T2 sequence (P15823 whole entry): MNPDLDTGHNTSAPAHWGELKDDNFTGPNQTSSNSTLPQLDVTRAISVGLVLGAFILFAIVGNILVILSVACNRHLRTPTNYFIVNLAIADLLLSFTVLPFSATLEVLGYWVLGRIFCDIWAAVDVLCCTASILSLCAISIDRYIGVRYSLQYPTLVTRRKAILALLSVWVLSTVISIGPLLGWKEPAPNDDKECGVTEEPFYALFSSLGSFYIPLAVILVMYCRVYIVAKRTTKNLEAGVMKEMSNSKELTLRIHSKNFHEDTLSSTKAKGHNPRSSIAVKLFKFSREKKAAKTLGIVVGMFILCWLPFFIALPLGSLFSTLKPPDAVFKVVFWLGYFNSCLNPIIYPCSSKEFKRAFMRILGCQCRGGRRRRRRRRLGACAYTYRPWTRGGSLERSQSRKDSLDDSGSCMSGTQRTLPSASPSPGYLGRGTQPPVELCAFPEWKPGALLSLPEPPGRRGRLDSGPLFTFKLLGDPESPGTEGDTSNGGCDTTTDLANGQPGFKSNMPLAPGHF
T2 sequence (P23944 whole entry): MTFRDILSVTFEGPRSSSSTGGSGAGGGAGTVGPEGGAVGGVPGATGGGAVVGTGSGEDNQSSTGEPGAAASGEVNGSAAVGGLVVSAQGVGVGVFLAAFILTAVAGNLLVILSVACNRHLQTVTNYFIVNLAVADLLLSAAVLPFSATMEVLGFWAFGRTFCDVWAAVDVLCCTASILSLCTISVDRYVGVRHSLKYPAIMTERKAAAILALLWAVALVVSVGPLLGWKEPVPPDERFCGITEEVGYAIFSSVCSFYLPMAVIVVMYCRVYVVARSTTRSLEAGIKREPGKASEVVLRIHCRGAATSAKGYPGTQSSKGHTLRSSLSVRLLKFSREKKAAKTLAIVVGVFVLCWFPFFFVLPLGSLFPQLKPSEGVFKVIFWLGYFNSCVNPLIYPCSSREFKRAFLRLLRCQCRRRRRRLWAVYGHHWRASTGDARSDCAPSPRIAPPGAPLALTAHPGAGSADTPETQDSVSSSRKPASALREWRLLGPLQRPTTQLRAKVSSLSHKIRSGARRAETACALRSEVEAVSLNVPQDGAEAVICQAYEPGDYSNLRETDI
T2 sequence (P43140 whole entry): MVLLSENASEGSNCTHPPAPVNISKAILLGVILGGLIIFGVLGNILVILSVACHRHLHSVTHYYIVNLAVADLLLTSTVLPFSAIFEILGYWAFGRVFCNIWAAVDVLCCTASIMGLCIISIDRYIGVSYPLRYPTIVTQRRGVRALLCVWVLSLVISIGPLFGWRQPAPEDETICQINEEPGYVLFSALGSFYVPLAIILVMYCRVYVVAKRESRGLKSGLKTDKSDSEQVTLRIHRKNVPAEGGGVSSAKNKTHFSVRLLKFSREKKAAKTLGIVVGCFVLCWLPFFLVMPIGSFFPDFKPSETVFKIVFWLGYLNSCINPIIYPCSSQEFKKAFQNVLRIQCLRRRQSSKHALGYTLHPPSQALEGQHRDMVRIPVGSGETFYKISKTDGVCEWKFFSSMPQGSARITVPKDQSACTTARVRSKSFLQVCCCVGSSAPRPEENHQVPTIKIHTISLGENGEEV
Description: Displacement of [3H]prazosin from rat cerebral cortex alpha-1 adrenergic receptor by liquid scintillation counting analysis. It is filed as tissue-based. On the technique in general: Loss of bound radioactivity is the signal in a displacement assay; it reports binding, not function.

In assay [3] the target is T3, Adrenergic receptor alpha-2 (Rattus norvegicus, UniProt P22086+P19328+P22909).
T3 sequence (P22086 whole entry): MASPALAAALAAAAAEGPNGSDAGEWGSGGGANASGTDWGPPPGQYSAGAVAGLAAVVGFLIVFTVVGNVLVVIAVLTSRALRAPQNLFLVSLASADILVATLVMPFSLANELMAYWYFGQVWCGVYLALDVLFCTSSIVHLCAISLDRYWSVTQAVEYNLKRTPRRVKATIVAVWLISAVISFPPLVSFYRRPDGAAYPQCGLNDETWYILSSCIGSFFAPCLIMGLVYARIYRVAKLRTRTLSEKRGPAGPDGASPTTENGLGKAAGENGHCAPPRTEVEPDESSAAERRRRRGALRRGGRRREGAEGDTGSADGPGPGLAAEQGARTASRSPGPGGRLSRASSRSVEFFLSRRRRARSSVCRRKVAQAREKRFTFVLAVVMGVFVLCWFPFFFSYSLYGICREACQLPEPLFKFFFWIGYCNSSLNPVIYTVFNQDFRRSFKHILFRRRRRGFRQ
T3 sequence (P19328 whole entry): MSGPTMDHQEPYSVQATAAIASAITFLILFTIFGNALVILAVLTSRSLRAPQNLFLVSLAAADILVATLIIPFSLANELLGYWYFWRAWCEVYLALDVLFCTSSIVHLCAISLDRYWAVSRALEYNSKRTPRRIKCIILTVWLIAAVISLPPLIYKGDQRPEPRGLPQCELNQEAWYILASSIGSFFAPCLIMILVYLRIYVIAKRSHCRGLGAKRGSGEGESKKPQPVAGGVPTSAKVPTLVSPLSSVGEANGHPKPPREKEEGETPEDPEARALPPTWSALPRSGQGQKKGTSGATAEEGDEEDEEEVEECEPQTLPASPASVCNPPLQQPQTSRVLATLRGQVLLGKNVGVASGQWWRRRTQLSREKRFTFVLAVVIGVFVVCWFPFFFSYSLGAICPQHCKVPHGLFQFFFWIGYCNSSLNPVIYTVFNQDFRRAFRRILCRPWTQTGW
T3 sequence (P22909 whole entry): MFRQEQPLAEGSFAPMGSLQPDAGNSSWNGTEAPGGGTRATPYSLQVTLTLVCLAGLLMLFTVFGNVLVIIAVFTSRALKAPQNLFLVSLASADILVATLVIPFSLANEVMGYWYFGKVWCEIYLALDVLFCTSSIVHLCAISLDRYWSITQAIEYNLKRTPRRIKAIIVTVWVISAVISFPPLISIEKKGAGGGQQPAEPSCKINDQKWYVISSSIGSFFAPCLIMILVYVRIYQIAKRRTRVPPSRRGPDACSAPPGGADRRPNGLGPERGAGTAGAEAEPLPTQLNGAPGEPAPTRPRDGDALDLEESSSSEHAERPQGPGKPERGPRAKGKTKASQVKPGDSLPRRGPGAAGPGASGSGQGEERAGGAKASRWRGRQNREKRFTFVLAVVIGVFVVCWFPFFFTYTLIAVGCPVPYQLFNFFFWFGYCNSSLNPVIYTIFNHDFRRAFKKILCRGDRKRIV
Nature of the assay: Displacement of [3H]clonidine from rat cerebral cortex alpha-2 adrenergic receptor by liquid scintillation counting analysis. It is filed as tissue-based.

Assay [4] deals with T4, Alpha-1A adrenergic receptor (Homo sapiens, UniProt P35348).
T4 sequence (P35348 whole entry): T1 sequence (P35348 whole entry)
Nature of the assay: Antagonist activity at alpha-1A adrenergic receptor (unknown origin) incubated for 30 mins prior to agonist addition measured after 5 hrs by CCF4-AM staining-based cellular assay.

Assay [5] concerns the target T5, Alpha-1B adrenergic receptor (Homo sapiens, UniProt P35368).
T5 sequence (P35368 whole entry): T1 sequence (P35368 whole entry)
Nature of the assay: Antagonist activity at alpha-1B adrenergic receptor (unknown origin) incubated for 30 mins prior to agonist addition measured after 5 hrs by CCF4-AM staining-based cellular assay.

Assay [6] deals with Rattus norvegicus. Description: Hypotensive activity in normotensive anesthetized Wistar rat assessed as reduction of systolic pressure at 1 to 5 mg/kg, iv measured up to 60 mins. It is filed as functional, organism-based.
Assay [7] relates to Rattus norvegicus. Description: Hypotensive activity in normotensive anesthetized Wistar rat assessed as reduction of diastolic pressure at 1 to 5 mg/kg, iv measured up to 60 mins. Format: functional, organism-based.
Assay [8] deals with T4, Alpha-1A adrenergic receptor. Nature of the assay: Agonist activity at alpha-1A adrenergic receptor (unknown origin) after 5 hrs by CCF4-AM staining-based cellular assay.

`Cc1ccccc1N1CCN(CCN2CCCC2=O)CC1` came in with a pKi in assay [1] of 7.05.
`COc1ccc(N2CCN(CCCCN3CCCC3=O)CC2)cc1.Cl`: the pKi in assay [2] and in assay [3] was below 5 in each case.
For `O=C1CCCN1CCN1CCN(c2ccccc2Cl)CC1`, the pKi in assay [1] was determined as 7.13.
On to `Cl.O=C1CCCN1CCCCN1CCN(c2ccccc2Cl)CC1`, for which the values for the pKi in assay [2] and in assay [3] were 7.3 and 6.01, respectively. In addition, the EC50 came out at 138 nM in assay [4] (read-out: EC50) and 2.53 nM in assay [5]. Besides, the result with Rattus norvegicus [6] and in the assay on Rattus norvegicus [7] was Active.
Regarding `COc1ccc(N2CCN(CCN3CCCC3=O)CC2)cc1.Cl`, the pKi in assay [2] is 5.92; in assay [3] it was below 5.
Regarding `Cl.O=C1CCCN1CCCCN1CCN(c2ccccc2O)CC1`, the pKi in assay [2] is reported as 6.44; in assay [3] it was below 5. Moreover, the EC50 entry in assay [8] was “Not Active”; in assay [4] it was “Not Active”; in assay [5], 165 nM.
With `Cl.O=C1CCCN1CCCCN1CCN(C(c2ccccc2)c2ccccc2)CC1`, the pKi was 6.65 in assay [2] and below 5 in assay [3]. In addition, the values for the EC50 result in assay [8], in assay [4] and in assay [5] were “Not Active”, “Not Active” and 289 nM, respectively.
`Cc1ccccc1N1CCN(CCCCN2CCCC2=O)CC1.Cl`: the values for the pKi in assay [2] and in assay [3] were 7.14 and 6.05, respectively. Besides, the EC50 result in assay [8] was “Not Active”; in assay [4], “Not Active”; in assay [5], 3.5 nM. Further, the outcome with Rattus norvegicus [6] and in the assay with Rattus norvegicus [7] was Active.
In the case of `COc1ccccc1N1CCN(CCN2CCCC2=O)CC1.Cl`, the pKi in assay [2] and in assay [3] was below 5 in each case.
For `Cl.O=C1CCCN1CCCCN1CCN(C(c2ccc(F)cc2)c2ccc(F)cc2)CC1`, the pKi in assay [2] is listed as 7.07; in assay [3], 5.92. Further, the EC50 in assay [4] (read-out: EC50) turned out to be 329 nM; in assay [5] it was 131 nM.
In the case of `Cl.O=C1CCCN1CCCCN1CCN(c2ccc(F)cc2F)CC1`, the pKi in assay [2] is 6.77; in assay [3], below 5. Also, the EC50 entry was “Not Active” in assay [8], “Not Active” in assay [4] and 46.9 nM in assay [5].
`Cl.O=C1CCCN1CCN1CCN(C(c2ccc(F)cc2)c2ccc(F)cc2)CC1`: the pKi came to 6.43 in assay [2] and 6.01 in assay [3].
In the case of `Cl.O=C1CCCN1CCN1CCN(c2ccc(Cl)cc2)CC1`, the pKi is 5.51 in assay [2] and below 5 in assay [3].
For `Cc1ccccc1N1CCN(CCN2CCCC2=O)CC1.Cl` the same measures were 6.09 and 5.92.

The term pKi denotes the negative decadic logarithm of the Ki, by convention in mol/L. Usually EC50 stands for the concentration needed to bring the measured effect to its halfway point.
